Experimental data reported in US20120225132A1, “Methods for Increasing the Kinetic Activity of Alcohol, Water and Other Liquids, so as to Render the Liquids More Capable of Enhancing the Alternative Cellular Energy Pathway in the Prevention and Therapy of Diseases” (priority 2011, published 2012).

Test system: ACE pathway
Test: Clinical evaluation of ethanol solutions (with neutral red dye and UV illumination) by the parent of an autistic child
Assay type: in vivo
Conditions: standardized protocol

CCO [unprocessed ethanol, ethanol]
clinical response of the child with autism as judged by the parent: still effective
